In test [1] the test system is Kyn levels in BxPC3 cells (kynurenine generated by IDO1). Briefly: Cellular Kyn assay (automated Kyn screening assay). It counts as cell-based. Particulars: Homo sapiens, BXPC-3, 48 h, IFN-γ, L-Trp and compounds 48 h, mean ± SD, read-out: IC50 (Kyn assay), reduction of kynurenine levels.
Another test addresses T1, recombinant human IDO1 (Homo sapiens, UniProt P14902).
T1 construct: The GST-tag of IDO1 was removed to obtain untagged full-length IDO1l using PreScission protease; GST (N, cleaved yes); made in house; own inference
The test is described as follows: IDO1 enzymatic assay in vitro. Particulars: pre-incubation 37 °C 45 min. It counts as biochemical.

In test [2] the target is T2, recombinant full-length human IDO1 (Homo sapiens, UniProt P14902).
T2 construct: The GST-tag of IDO1 was removed to obtain untagged full-length IDO1l using PreScission protease; GST (N, cleaved yes); made in house; own inference
The test is described as follows: Thermal shift assay (nanoDSF). Type of test: binding. Particulars: 50 µM, 3 h at 37 °C. Here is the method: Incubation at 37 °C for 3 h. Representative data for n = 3. c) Time‐course of heme displacement from IDO1 detected by the absorbance at the Soret peak (404 nm) as a function of time. […] All curves were fit using a one‐site model with N = 1 and defined IDO1 concentration. Left plots show baseline corrected data, while right plots show integrated binding isotherms versus iDegs/IDO1 ratio. IDO1 protein (125 µM) was titrated into the stirred sample cell containing iDegs (25 µM, except for iDeg‐8 at 50 µM). Representative data for n = 3, except for iDeg‐9 (n = 2). g)–i) In vivo activity of iDeg‐6. NSG immunodeficient mice were injected with SKOV‐3 cells. Mice were treated with 18 intraperitoneal injections of iDeg‐6 (30 mg kg^−1) or vehicle. The pharmacological treatment was twice daily. Tumor volume was determined weekly by digital caliper. g) SKOV‐3 tumor growth curves in iDeg‐6‐treated mice (n = 12, green lines) or vehicle‐treated mice (n = 13, gray lines). Statistical analysis was performed by two‐way ANOVA: ****p < 0.001. h) Body weight changes during treatment window (mean values ± range). i) Survival data are shown by Kaplan‐Meier survival analysis. Mantel–Haenszel statistical analysis: p < 0.0001). […]
The test compounds or DMSO (vehicle control) were incubated with recombinant full-length human IDO1 (rhIDO1; 10 µM) in 50 mM potassium phosphate buffer (pH 6.5) for 3 h at 37 °C. Following incubation, samples were centrifuged at 5,000 × g for 10 minutes, then the protein-compound solutions were loaded into capillaries, and thermal unfolding was assessed using the Prometheus Panta system (NanoTemper® Technologies, Germany). Fluorescence intensities at 330 nm and 350 nm were recorded at temperature increments of 0.115 °C from 20 °C to 90 °C. Melting temperatures (Tm) were automatically calculated using Prometheus NT.48 analysis software. The resulting thermal denaturation curves, with Tm defined as the temperature at the maximum derivative of the unfolding transition, were visualized and analysed using GraphPad Prism version 9.0 (GraphPad Software, USA).

Test [3] deals with T3, heme-bound IDO1 (holo-IDO1) (Homo sapiens, UniProt P14902).
T3 construct: The GST-tag of IDO1 was removed to obtain untagged full-length IDO1l using PreScission protease; GST (N, cleaved yes); made in house; own inference
Briefly: UV/Vis detection of heme-bound IDO1 (heme displacement). It counts as binding. Particulars: 50 µM. The procedure:
(§1) Incubation at 37 °C for 3 h. Representative data for n = 3. c) Time‐course of heme displacement from IDO1 detected by the absorbance at the Soret peak (404 nm) as a function of time. […] All curves were fit using a one‐site model with N = 1 and defined IDO1 concentration. Left plots show baseline corrected data, while right plots show integrated binding isotherms versus iDegs/IDO1 ratio. IDO1 protein (125 µM) was titrated into the stirred sample cell containing iDegs (25 µM, except for iDeg‐8 at 50 µM). Representative data for n = 3, except for iDeg‐9 (n = 2). g)–i) In vivo activity of iDeg‐6. NSG immunodeficient mice were injected with SKOV‐3 cells. Mice were treated with 18 intraperitoneal injections of iDeg‐6 (30 mg kg^−1) or vehicle. The pharmacological treatment was twice daily. Tumor volume was determined weekly by digital caliper. g) SKOV‐3 tumor growth curves in iDeg‐6‐treated mice (n = 12, green lines) or vehicle‐treated mice (n = 13, gray lines). Statistical analysis was performed by two‐way ANOVA: ****p < 0.001. h) Body weight changes during treatment window (mean values ± range). i) Survival data are shown by Kaplan‐Meier survival analysis. Mantel–Haenszel statistical analysis: p < 0.0001).
Representative data of n=3 biological replicates. c, IDO1 was incubated with compounds (50 µM) or DMSO (control). UV/VIS spectra were acquired at five time points to monitor heme loss over time. Data are representative of two replicates.
The test compounds or DMSO (vehicle control) were incubated with recombinant full-length human IDO1 (rhIDO1; 10 µM) in 50 mM potassium phosphate buffer (pH 6.5) for 3 h at 37 °C. Following incubation, samples were centrifuged at 5,000 × g for 10 minutes. UV/Vis absorption spectra were then recorded from 250 nm to 650 nm in 1 nm increments using UV-transparent microplates (UV-STAR®, Greiner Bio-One, Austria) on a Spark® multimode microplate reader (Tecan, Austria). Absorbance values were analyzed at 404 nm (A404), and were plotted using GraphPad Prism version 9.0 (GraphPad Software, USA).

The target of test [4] is T2, recombinant full-length human IDO1. Briefly: Isothermal titration calorimetry (ITC). Type of test: binding. Particulars: 25 °C. The procedure:
as §1
ITC was performed using the MicroCal PEAQ-ITC system (Malvern) at 25 °C. Recombinant human full-length IDO1 (rhIDO1) was buffer-exchanged into 100 mM phosphate buffer (50 mM KH₂PO₄ and 50 mM K₂HPO₄, pH 6.57) with 1 mM TECP using a 10 K Amicon® Ultra centrifugal filter (Millipore). The buffer exchange was repeated ten times to ensure complete removal of interfering components. The final protein sample was diluted in the same phosphate buffer prior to titration.125 μM protein in 100 mM phosphate buffer was loaded into the syringe, while 25 μM compound (except for iDeg-8, 50 μM) in 100 mM phosphate buffer was loaded to the cell. All samples were adjusted to 25 °C and degassed before loading. Titrations were performed at 25 °C with one injection of 0.4 µL, followed by 18 injections of 2 µL. Experiments were performed with three biological replicates except for iDeg-9 with two biological replicates. Data were analyzed using the MicroCal PEAQ-ITC Analysis software and were plotted using GraphPad Prism 9.0 (GraphPad, USA).

In test [5] the target is IDO1 protein levels in BxPC3 cells (Homo sapiens, UniProt P14902). Briefly: IDO1 immunoblotting (degradation). More on the design: endogenous in cells; host or cells: BxPC3 (DSMZ), IFN-γ stimulated. Particulars: for Max. degradation (%): 24 h incubation, mean ± SD. Type of test: cell-based.
Chain of IDO1 protein levels in BxPC3 cells (P14902 whole entry): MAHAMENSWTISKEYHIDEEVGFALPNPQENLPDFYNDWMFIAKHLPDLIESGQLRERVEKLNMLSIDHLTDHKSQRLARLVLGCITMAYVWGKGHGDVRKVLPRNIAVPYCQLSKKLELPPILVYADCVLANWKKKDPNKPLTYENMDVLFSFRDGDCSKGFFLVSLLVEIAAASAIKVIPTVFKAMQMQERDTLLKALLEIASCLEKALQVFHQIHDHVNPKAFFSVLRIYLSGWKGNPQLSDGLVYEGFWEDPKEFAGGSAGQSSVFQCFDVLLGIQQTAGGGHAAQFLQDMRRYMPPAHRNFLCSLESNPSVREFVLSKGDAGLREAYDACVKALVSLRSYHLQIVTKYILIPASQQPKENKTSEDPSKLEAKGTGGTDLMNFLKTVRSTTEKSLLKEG

T2 sequence (P14902 whole entry): as above
T1 sequence (P14902 whole entry): as above
T3 sequence (P14902 whole entry): as above

`C#Cc1ccc(NC(=O)OC[C@]23CN(S(=O)(=O)c4ccc(C(C)(C)C(=O)O)cc4C)C[C@H]2C[C@H]2C[C@@H]3C2(C)C)cc1` [102 (iDeg-9), 2-(4-(((3aS,4R,6R,7aS)-3a-((((4-ethynylphenyl)carbamoyl)oxy)methyl)-5,5-dimethyloctahydro-2H-4,6-methanoisoindol-2-yl)sulfonyl)-3-methylphenyl)-2-methylpropanoic acid]: the IC50 in test [1] came out at 5 nM. Besides, at recombinant human IDO1 (at 14 µM, mean ± SD), the inhibition at 14 µM was determined as 64 ± 1%. Also, the half-maximal inhibitory concentration (IC50) at recombinant human IDO1 (determined if inhibition at 14 µM higher than 50%) worked out at 0.089 ± 0.03 µM. The “shift in IDO1 melting temperature ΔTm / binding in TSA (in words)” value in test [2] is given as “highest ΔT m value”. In addition, in test [3] (37 °C, 3 h, Soret band 404 nm), the “heme displacement from holo-IDO1 (in words)” value is on record as “most efficient heme displacement”. Further, in test [3] (absorbance at 404 nm over time, compared to iDeg-6 and -8), the “time course of heme displacement (in words)” value is listed as “faster”. Further, in test [4], the “-TΔS (ITC)” value is 15.6 kcal/mol, the dissociation constant (Kd) came out at 215 nM, the “ΔG (ITC)” value is -9.1 kcal/mol and the “ΔH (ITC)” value is listed as -24.7 ± 0.3 kcal/mol. In test [4] (one-site model), the dissociation constant Kd was 220 ± 20 nM. The “Max. degradation (%)” value in test [5] (10 nM) was 20 ± 9 (9) %. For the same compound, in test [5] (100 nM), the “Max. degradation (%)” value was 21 ± 20 (9) %. Moreover, the greatest degradation seen (Dmax) at 0.1 µM in test [5] (BXPC-3, @100 nM, BxPC3 cells) amounted to 21%. Besides, in test [5] (BxPC3 cells, IFN-γ 24 h, washout, compounds 24 h), the “IDO1 protein level by immunoblotting (in words)” value is “barely affected the IDO1 level”.

These data come from publication PMC12811658, “Design, Synthesis, and Structural Evolution of Pseudo‐Natural Product IDO1 Inhibitors and Degraders” (Angewandte Chemie (International Ed. in English), 2025).
